Test results from the NIST ThermoML archive (doi:10.1021/je900210h).

Conditions: Fluid (supercritical or subcritical phases), Coaxial cylinder method

FCC(F)(F)F [1,1,1,2-tetrafluoroethane]
Conditions	thermal conductivity [W/m/K]
385.18 K, 4959 kPa	0.0526
385.18 K, 4978 kPa	0.0528
385.18 K, 5000 kPa	0.053
385.18 K, 5022 kPa	0.053
385.18 K, 5042 kPa	0.053
385.18 K, 5058 kPa	0.053
385.18 K, 5080 kPa	0.053
385.18 K, 5100 kPa	0.053
385.18 K, 5120 kPa	0.053
385.18 K, 5151 kPa	0.0528
385.18 K, 5179 kPa	0.0526
385.18 K, 5224 kPa	0.0524
385.18 K, 5254 kPa	0.0522
385.19 K, 4900 kPa	0.0512
385.19 K, 4918 kPa	0.0518
385.19 K, 5296 kPa	0.0518
385.19 K, 5322 kPa	0.0518
385.19 K, 5358 kPa	0.0516
385.19 K, 5402 kPa	0.0516
385.19 K, 5454 kPa	0.0514
385.19 K, 5513 kPa	0.0512
385.2 K, 4880 kPa	0.0505
385.21 K, 4840 kPa	0.0488
385.22 K, 4820 kPa	0.048
385.23 K, 4800 kPa	0.0471
385.25 K, 4760 kPa	0.0458
385.26 K, 4730 kPa	0.0446
385.28 K, 4700 kPa	0.0431
385.29 K, 4670 kPa	0.0421
385.3 K, 4640 kPa	0.0411
385.31 K, 4610 kPa	0.0401
385.33 K, 4580 kPa	0.0393
385.34 K, 4540 kPa	0.0382
385.36 K, 4500 kPa	0.0371
385.37 K, 4460 kPa	0.0363
385.39 K, 4410 kPa	0.0352
385.41 K, 4360 kPa	0.0343
385.42 K, 4310 kPa	0.0335
385.57 K, 4260 kPa	0.0328
385.59 K, 4200 kPa	0.032
385.61 K, 4120 kPa	0.0311
385.72 K, 5700 kPa	0.0514
385.72 K, 5714 kPa	0.0516
385.75 K, 4060 kPa	0.0305
385.78 K, 3920 kPa	0.0293
387.19 K, 7800 kPa	0.0564
387.2 K, 7501 kPa	0.0559
387.22 K, 7002 kPa	0.0545
387.23 K, 6650 kPa	0.0536
387.25 K, 6371 kPa	0.0527
387.27 K, 9502 kPa	0.0597
387.28 K, 18006 kPa	0.0691
387.29 K, 17000 kPa	0.0682
387.3 K, 8468 kPa	0.0578
387.3 K, 16290 kPa	0.0676
387.32 K, 14910 kPa	0.0663
387.33 K, 13500 kPa	0.0648
387.33 K, 14002 kPa	0.0653
387.34 K, 13000 kPa	0.0642
387.37 K, 11008 kPa	0.0619
387.37 K, 11503 kPa	0.0625
392.65 K, 180 kPa	0.02136
394.44 K, 6457 kPa	0.0507
394.44 K, 6523 kPa	0.0509
394.44 K, 6557 kPa	0.0511
394.45 K, 6140 kPa	0.0494
394.45 K, 6200 kPa	0.0496
394.45 K, 6260 kPa	0.0498
394.45 K, 6300 kPa	0.05
394.45 K, 6399 kPa	0.0503
394.46 K, 5940 kPa	0.0483
394.46 K, 5980 kPa	0.0487
394.46 K, 6044 kPa	0.0491
394.46 K, 6100 kPa	0.0492
394.47 K, 5760 kPa	0.0472
394.47 K, 5767 kPa	0.0472
394.47 K, 5800 kPa	0.0476
394.47 K, 5811 kPa	0.0476
394.47 K, 5851 kPa	0.048
394.47 K, 5886 kPa	0.048
394.49 K, 5583 kPa	0.0453
394.49 K, 5626 kPa	0.0457
394.49 K, 5641 kPa	0.046
394.5 K, 5527 kPa	0.0444
394.52 K, 5428 kPa	0.043
394.53 K, 5366 kPa	0.0419
394.54 K, 5314 kPa	0.0411
394.55 K, 5300 kPa	0.0409
394.56 K, 5246 kPa	0.04
394.56 K, 6908 kPa	0.0519
394.56 K, 7067 kPa	0.0523
394.57 K, 5176 kPa	0.039
394.57 K, 6665 kPa	0.0513
394.57 K, 6720 kPa	0.0515
394.57 K, 6754 kPa	0.0515
394.57 K, 6800 kPa	0.0515
394.6 K, 5055 kPa	0.0374
394.68 K, 7457 kPa	0.0533
394.68 K, 7521 kPa	0.0535
394.68 K, 7635 kPa	0.0537
394.69 K, 7159 kPa	0.0526
394.69 K, 7321 kPa	0.0528
394.81 K, 7706 kPa	0.0538
394.81 K, 7827 kPa	0.0541
394.88 K, 4950 kPa	0.036
394.88 K, 4978 kPa	0.0363
394.89 K, 4890 kPa	0.0353
394.91 K, 4821 kPa	0.0346
394.93 K, 4722 kPa	0.0335
394.94 K, 4649 kPa	0.0328
394.95 K, 4583 kPa	0.0322
395.23 K, 4495 kPa	0.0315
395.24 K, 4405 kPa	0.0309
403.68 K, 7203 kPa	0.0484
403.69 K, 7105 kPa	0.048
403.69 K, 7364 kPa	0.049
403.82 K, 6973 kPa	0.0475
403.83 K, 6852 kPa	0.0468
404.23 K, 6723 kPa	0.046
404.23 K, 6754 kPa	0.0461
404.34 K, 6434 kPa	0.044
404.34 K, 6516 kPa	0.0446
404.36 K, 6559 kPa	0.0449
404.36 K, 6640 kPa	0.0453
404.38 K, 6342 kPa	0.0433
404.4 K, 6039 kPa	0.041
404.4 K, 6080 kPa	0.0413
404.42 K, 5967 kPa	0.0402
404.43 K, 5860 kPa	0.0393
404.43 K, 5908 kPa	0.0396
404.44 K, 5814 kPa	0.0388
404.45 K, 5750 kPa	0.0383
404.46 K, 5668 kPa	0.0375
404.47 K, 5579 kPa	0.0368
404.48 K, 5494 kPa	0.0361
404.49 K, 5419 kPa	0.0355
404.5 K, 5330 kPa	0.0349
404.51 K, 5242 kPa	0.0342
404.65 K, 5162 kPa	0.0336
404.67 K, 5039 kPa	0.0329
404.68 K, 4909 kPa	0.0321
404.7 K, 4754 kPa	0.0312
404.71 K, 4641 kPa	0.0307
404.73 K, 4451 kPa	0.0298
404.73 K, 4467 kPa	0.0298
404.73 K, 4523 kPa	0.0301
404.76 K, 4201 kPa	0.0287
404.76 K, 4278 kPa	0.029
404.77 K, 4070 kPa	0.0283
405.05 K, 3914 kPa	0.0278
405.06 K, 3790 kPa	0.0274
405.07 K, 3698 kPa	0.0271
405.25 K, 2700 kPa	0.0252
405.25 K, 2863 kPa	0.0254
405.26 K, 2524 kPa	0.0249
405.27 K, 2343 kPa	0.0247
405.34 K, 3411 kPa	0.0264
405.46 K, 8835 kPa	0.0521
405.47 K, 8558 kPa	0.0515
405.48 K, 7814 kPa	0.0499
405.49 K, 7506 kPa	0.049
405.81 K, 1930 kPa	0.0243
406.09 K, 1196 kPa	0.0236
406.88 K, 18500 kPa	0.0652
406.9 K, 16345 kPa	0.063
406.91 K, 15679 kPa	0.0623
406.93 K, 14350 kPa	0.0608
406.94 K, 13921 kPa	0.0603
406.96 K, 12915 kPa	0.0591
406.99 K, 11426 kPa	0.0569
407 K, 10911 kPa	0.0562
407.01 K, 10638 kPa	0.0557
426.86 K, 160 kPa	0.02469
436.44 K, 180 kPa	0.02542
446.25 K, 200 kPa	0.02665
446.25 K, 760 kPa	0.02661
451.17 K, 180 kPa	0.02683
455.69 K, 100 kPa	0.0268
455.92 K, 680 kPa	0.02719
466.31 K, 650 kPa	0.02846
476.24 K, 100 kPa	0.02922
496.18 K, 100 kPa	0.0311
515.97 K, 100 kPa	0.03304
